Test [1] concerns the target T1, CD73 (Homo sapiens (Human), UniProt P21589). The class given is biochemical. The following applies: 1 mM NaH2PO4 in enzyme buffer, CD73 0.3 nM, AMP 15 uM.
The target of test [2] is T1, CD73. The experiment in a line: MDA-MB-231 Cell Based CD73 Activity Assay (DMEM). The following applies: MDA-MB-231-GFP cells, DMEM medium with 10% human plasma, 200 uM AMP.

T1 sequence (P21589 27-574): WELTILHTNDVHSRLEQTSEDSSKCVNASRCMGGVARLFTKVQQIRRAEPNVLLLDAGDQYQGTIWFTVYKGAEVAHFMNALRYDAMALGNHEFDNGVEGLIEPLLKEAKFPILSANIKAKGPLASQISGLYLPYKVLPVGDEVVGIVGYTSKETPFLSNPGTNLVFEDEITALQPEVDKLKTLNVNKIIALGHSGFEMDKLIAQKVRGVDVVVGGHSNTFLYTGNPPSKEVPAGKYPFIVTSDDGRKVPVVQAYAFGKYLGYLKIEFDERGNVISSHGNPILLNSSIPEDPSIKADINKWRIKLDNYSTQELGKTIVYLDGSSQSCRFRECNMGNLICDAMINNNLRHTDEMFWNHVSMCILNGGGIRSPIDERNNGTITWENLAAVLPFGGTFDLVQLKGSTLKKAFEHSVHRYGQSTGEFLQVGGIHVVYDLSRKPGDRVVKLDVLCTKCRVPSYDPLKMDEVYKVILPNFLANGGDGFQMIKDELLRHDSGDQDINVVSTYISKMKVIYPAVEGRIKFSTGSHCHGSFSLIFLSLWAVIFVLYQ

On to `O=C(NC1CN(c2cc(-c3c[nH]c(=O)[nH]c3=O)nn3ccnc23)CC1(F)F)c1ccc(C(F)(F)F)cc1` (stereo not drawn) [Example 210, N-[1-[6-(2,4-dioxo-1H-pyrimidin-5-yl)imidazo[1,2-b]pyridazin-8-yl]-4,4-difluoro-pyrrolidin-3-yl]-4-(trifluoromethyl)benzamide], for which the IC50 (usually the point on the concentration scale where inhibition reaches its midpoint) against CD73 [1] was 4.59 nM. The concentration for a half-maximal effect (EC50) (commonly the midpoint of the concentration-response curve) at CD73 [2] was determined as 24.4 nM.
In the same order, the values of `O=C(NC1CN(c2cc(-c3c[nH]c(=O)[nH]c3=O)nn3ccnc23)CC1(F)F)c1ccc(C(F)(F)F)cn1` (stereo not drawn) [Example 211, N-[1-[6-(2,4-dioxo-1H-pyrimidin-5-yl)imidazo[1,2-b]pyridazin-8-yl]-4,4-difluoro-pyrrolidin-3-yl]-5-(trifluoromethyl)pyridine-2-carboxamide] are 2.33 nM and 10.8 nM.
Consider `O=c1[nH]cc(-c2cc([C@H]3C[C@@H]3c3ccc(C(F)F)cc3)n3nccc3n2)c(=O)[nH]1` [Example 215, 5-(7-((1S,2S)-2-(4-(difluoromethyl)phenyl)cyclopropyl)pyrazolo[1,5-a]pyrimidin-5-yl)pyrimidine-2,4(1H,3H)-dione], for which, at CD73 [1], the concentration for half-maximal inhibition (IC50) worked out at 1.41 nM. On CD73 [2], the EC50 was 12.1 nM.
In the case of `CC1(C)CN(c2cc(-c3c[nH]c(=O)[nH]c3=O)nc3ccnn23)CC1(F)F` [Example 216, 5-(7-(3,3-difluoro-4,4-dimethylpyrrolidin-1-yl)pyrazolo[1,5-a]pyrimidin-5-yl)pyrimidine-2,4(1H,3H)-dione], the 50% inhibitory concentration (IC50) at CD73 [1] came out at 8.01 nM. This molecule yielded a concentration giving a half-maximal response (EC50) on CD73 [2] of 31.7 nM.
In the same order, the values of `CCc1cnn2c(N3CC(C)(C)C(F)(F)C3)cc(-c3c[nH]c(=O)[nH]c3=O)nc12` [Example 217, 5-(7-(3,3-difluoro-4,4-dimethylpyrrolidin-1-yl)-3-ethylpyrazolo[1,5-a]pyrimidin-5-yl)pyrimidine-2,4(1H,3H)-dione] are 111 nM and 584 nM.
In the same order, the values of `O=c1[nH]cc(-c2cc(N3CC(F)(F)C4(CC4)C3)n3ncc(Cl)c3n2)c(=O)[nH]1` [Example 218, 5-(3-chloro-7-(7,7-difluoro-5-azaspiro[2.4]heptan-5-yl)pyrazolo[1,5-a]pyrimidin-5-yl)pyrimidine-2,4(1H,3H)-dione] are 3.29 nM and 455 nM.
For `CC1(C)CN(c2cc(-c3c[nH]c(=O)[nH]c3=O)nc3c(F)cnn23)CC1(F)F` [Example 219, 5-(7-(3,3-difluoro-4,4-dimethylpyrrolidin-1-yl)-3-fluoropyrazolo[1,5-a]pyrimidin-5-yl)pyrimidine-2,4(1H,3H)-dione], the concentration for half-maximal inhibition (IC50) against CD73 [1] was found to be 8.26 nM. At CD73 [2], the EC50 was found to be 62.6 nM.
Take `CC1(C)CN(c2cc(-c3c[nH]c(=O)[nH]c3=O)nc3c(Cl)cnn23)CC1(F)F` [Example 220, 5-(3-chloro-7-(3,3-difluoro-4,4-dimethylpyrrolidin-1-yl)pyrazolo[1,5-a]pyrimidin-5-yl)pyrimidine-2,4(1H,3H)-dione]: on CD73 [1], it took 5.34 nM to reach half-maximal inhibition (IC50). Further, it took 114 nM to reach a half-maximal effect on CD73 [2] (EC50).
In the same order, the values of `CC1CN(c2cc(-c3c[nH]c(=O)[nH]c3=O)nc3ccnn23)CC1(F)F` (stereo not drawn) [Example 221, 5-(7-(3,3-difluoro-4-methylpyrrolidin-1-yl)pyrazolo[1,5-a]pyrimidin-5-yl)pyrimidine-2,4(1H,3H)-dione] are 13.1 nM and 74.9 nM.
In the same order, the values of `CC1CN(c2cc(-c3c[nH]c(=O)[nH]c3=O)nc3c(F)cnn23)CC1(F)F` (stereo not drawn) [Example 222, 5-(7-(3,3-difluoro-4-methylpyrrolidin-1-yl)-3-fluoropyrazolo[1,5-a]pyrimidin-5-yl)pyrimidine-2,4(1H,3H)-dione] are 17.4 nM and 133 nM.
The like results for `O=c1[nH]cc(-c2cc(N3C[C@H]4CCC[C@H]4C3)c3nccn3n2)c(=O)[nH]1` [Example 223, 5-(8-((3aR,6aS)-hexahydrocyclopenta[c]pyrrol-2(1H)-yl)imidazo[1,2-b]pyridazin-6-yl)pyrimidine-2,4(1H,3H)-dione] were, in that order, 31.4 nM and 66.4 nM.
On CD73 [1], `O=c1[nH]cc(-c2cc(N3CC4C(C3)C4(F)F)c3nccn3n2)c(=O)[nH]1` (stereo not drawn) [Example 224, 5-(8-(6,6-difluoro-3-azabicyclo[3.1.0]hexan-3-yl)imidazo[1,2-b]pyridazin-6-yl)pyrimidine-2,4(1H,3H)-dione] came in with a concentration for half-maximal inhibition (IC50) of 11.9 nM. The molecule further returned an EC50 on CD73 [2] of 32.6 nM.
In the same order, the values of `O=c1[nH]cc(-c2cc(N3CC4CC4C3)c3nccn3n2)c(=O)[nH]1` (stereo not drawn) [Example 225, 5-(8-(3-azabicyclo[3.1.0]hexan-3-yl)imidazo[1,2-b]pyridazin-6-yl)pyrimidine-2,4(1H,3H)-dione] are 15.2 nM and 106 nM.
Turning to `O=c1[nH]cc(-c2cc(NC3CCCC3)c3nccn3n2)c(=O)[nH]1` [Example 226, 5-(8-(cyclopentylamino)imidazo[1,2-b]pyridazin-6-yl)pyrimidine-2,4(1H,3H)-dione], the concentration for half-maximal inhibition (IC50) against CD73 [1] came to 121 nM. This molecule showed a 50% effective concentration (EC50) on CD73 [2] of 410 nM.
Consider `O=c1[nH]cc(-c2cc(NC3CCC(F)(F)C3)c3nccn3n2)c(=O)[nH]1` (stereo not drawn) [Example 227, 5-(8-((3,3-difluorocyclopentyl)amino)imidazo[1,2-b]pyridazin-6-yl)pyrimidine-2,4(1H,3H)-dione], for which the 50% inhibitory concentration (IC50) against CD73 [1] was above 250 nM. Besides, the EC50 at CD73 [2] was 487 nM.
In the same order, the values of `CC1(C)C2CN(c3cc(-c4c[nH]c(=O)[nH]c4=O)nn4ccnc34)CC21` (stereo not drawn) [Example 228, 5-(8-(6,6-dimethyl-3-azabicyclo[3.1.0]hexan-3-yl)imidazo[1,2-b]pyridazin-6-yl)pyrimidine-2,4(1H,3H)-dione] are 31.2 nM and 146 nM.
The like results for `O=c1[nH]cc(-c2cc(N3CC[C@H](C(F)F)C3)c3nccn3n2)c(=O)[nH]1` [Example 229, (S)-5-(8-(3-(difluoromethyl)pyrrolidin-1-yl)imidazo[1,2-b]pyridazin-6-yl)pyrimidine-2,4(1H,3H)-dione] were, in that order, 56.9 nM and 175 nM.
The like results for `O=c1[nH]cc(-c2cc(N3CC[C@@H](C(F)F)C3)c3nccn3n2)c(=O)[nH]1` [Example 230, (R)-5-(8-(3-(difluoromethyl)pyrrolidin-1-yl)imidazo[1,2-b]pyridazin-6-yl)pyrimidine-2,4(1H,3H)-dione] were, in that order, 39.5 nM and 64.7 nM.
As for `N#Cc1ccc(OC2CN(c3cc(-c4c[nH]c(=O)[nH]c4=O)nn4ccnc34)CC2(F)F)cc1` (stereo not drawn) [Example 231, 4-((1-(6-(2,4-dioxo-1,2,3,4-tetrahydropyrimidin-5-yl)imidazo[1,2-b]pyridazin-8-yl)-4,4-difluoropyrrolidin-3-yl)oxy)benzonitrile], the half-maximal inhibitory concentration (IC50) against CD73 [1] amounted to 1.62 nM. This molecule also showed an EC50 at CD73 [2] of 2 nM.
`O=c1[nH]cc(-c2cc(N3CC(Oc4ccc(C(F)F)cn4)C(F)(F)C3)c3nccn3n2)c(=O)[nH]1` (stereo not drawn) [Example 232, 5-(8-(4-((5-(difluoromethyl)pyridin-2-yl)oxy)-3,3-difluoropyrrolidin-1-yl)imidazo[1,2-b]pyridazin-6-yl)pyrimidine-2,4(1H,3H)-dione] gave an IC50 at CD73 [1] of 2.15 nM. The molecule also yielded a half-maximal effective concentration (EC50) at CD73 [2] of 6.18 nM.
The like results for `O=C(Nc1ccccc1F)OC1CN(c2cc(-c3c[nH]c(=O)[nH]c3=O)nn3ccnc23)CC1(F)F` (stereo not drawn) [Example 233, 1-(6-(2,4-dioxo-1,2,3,4-tetrahydropyrimidin-5-yl)imidazo[1,2-b]pyridazin-8-yl)-4,4-difluoropyrrolidin-3-yl (2-fluorophenyl)carbamate] were, in that order, 1.17 nM and 0.8 nM.
As for `O=C(Nc1ccccc1F)OCC(F)(F)COc1cc(-c2c[nH]c(=O)[nH]c2=O)nn2ccnc12` [Example 234, 3-((6-(2,4-dioxo-1,2,3,4-tetrahydropyrimidin-5-yl)imidazo[1,2-b]pyridazin-8-yl)oxy)-2,2-difluoropropyl (2-fluorophenyl)carbamate], at CD73 [1], the IC50 was determined as 0.62 nM. Moreover, on CD73 [2], the EC50 was determined as 6.56 nM.
In the same order, the values of `O=C(Nc1ccc(F)cc1F)O[C@H]1CN(c2cc(-c3c[nH]c(=O)[nH]c3=O)nn3ccnc23)CC1(F)F` [Example 235, (S)-1-(6-(2,4-dioxo-1,2,3,4-tetrahydropyrimidin-5-yl)imidazo[1,2-b]pyridazin-8-yl)-4,4-difluoropyrrolidin-3-yl (2,4-difluorophenyl)carbamate] are 0.96 nM and 0.82 nM.
The like results for `Cc1ccc(NC(=O)O[C@H]2CN(c3cc(-c4c[nH]c(=O)[nH]c4=O)nn4ccnc34)CC2(F)F)c(F)c1` [Example 236, (S)-1-(6-(2,4-dioxo-1,2,3,4-tetrahydropyrimidin-5-yl)imidazo[1,2-b]pyridazin-8-yl)-4,4-difluoropyrrolidin-3-yl (2-fluoro-4-methylphenyl)carbamate] were, in that order, 1.02 nM and 3.04 nM.
In the same order, the values of `N#Cc1ccc(O[C@H]2CN(c3cc(-c4c[nH]c(=O)[nH]c4=O)nn4ccnc34)CC2(F)F)cc1` [Example 237, (S)-4-((1-(6-(2,4-dioxo-1,2,3,4-tetrahydropyrimidin-5-yl)imidazo[1,2-b]pyridazin-8-yl)-4,4-difluoropyrrolidin-3-yl)oxy)benzonitrile] are 0.7 nM and 1.1 nM.
The molecule `O=C(Nc1ccc(F)cc1F)OCC(F)(F)COc1cc(-c2c[nH]c(=O)[nH]c2=O)nn2ccnc12` [Example 238, 3-((6-(2,4-dioxo-1,2,3,4-tetrahydropyrimidin-5-yl)imidazo[1,2-b]pyridazin-8-yl)oxy)-2,2-difluoropropyl (2,4-difluorophenyl)carbamate] showed an IC50 against CD73 [1] of 0.36 nM. A half-maximal effect at CD73 [2] (EC50) was put at 5.18 nM.
In the same order, the values of `O=C(Nc1c(F)cc(F)cc1F)O[C@H]1CN(c2cc(-c3c[nH]c(=O)[nH]c3=O)nn3ccnc23)CC1(F)F` [Example 239, (S)-1-(6-(2,4-dioxo-1,2,3,4-tetrahydropyrimidin-5-yl)imidazo[1,2-b]pyridazin-8-yl)-4,4-difluoropyrrolidin-3-yl (2,4,6-trifluorophenyl)carbamate] are 0.86 nM and 1.17 nM.

For the origin of these results see patent publication US20240043427A1 (Gilead Sciences, Inc., priority 2020, published 2024).
